Laboratory results: the supplement of paper PMC10307832

How the values were obtained:
Assay in all cases: relative viability (nuclei count vs DMSO), 5 days (fraction); higher = more cells survive
[1] = compound: O=C(O)C(Cc1ccccc1[N+](=O)[O-])=NNc1nc(-c2ccc(Cl)c(Cl)c2)cs1 (mixture of isomers) [4EGI-1] + COc1cccc2cc(-c3nc([C@H]4CC[C@H](C(=O)O)CC4)n4ncnc(N)c34)[nH]c12 [OSI-027] (partner 0.5 µM)
Procedure, shortened: (§1)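 Five library-drug doses in √10 steps were combined with a fixed anchor-drug dose, or a single drug was given alone, by pin tool to lung cancer cell lines in 1536-well plates the day after seeding. Nuclei were stained and counted after 5 days. Relative viability is the nuclei count in treated wells over that in vehicle wells, taken as the median of duplicate plates.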

[2] = compound: O=C(O)C(Cc1ccccc1[N+](=O)[O-])=NNc1nc(-c2ccc(Cl)c(Cl)c2)cs1 (mixture of isomers) [4EGI-1] + C[C@]1(O)C[C@@H](c2nc(-c3ccc4ccc(-c5ccccc5)nc4c3)c3c(N)nccn32)C1 [Linsitinib] (partner 1 µM)
Procedure, shortened: as §1

[3] = compound: O=C(O)C(Cc1ccccc1[N+](=O)[O-])=NNc1nc(-c2ccc(Cl)c(Cl)c2)cs1 (mixture of isomers) [4EGI-1] + Cc1nc(NC(=O)N2CCC[C@H]2C(N)=O)sc1-c1ccnc(C(C)(C)C(F)(F)F)c1 [Alpelisib] (partner 2 µM)
Procedure, shortened: as §1

[4] = compound: O=C(O)C(Cc1ccccc1[N+](=O)[O-])=NNc1nc(-c2ccc(Cl)c(Cl)c2)cs1 (mixture of isomers) [4EGI-1] + O=C(CCCCCCC(=O)Nc1ccccc1)NO [Vorinostat] (partner 1 µM)
Procedure, shortened: as §1

Cell Line	relative viability ([1]; first compound 0.5 µM)	relative viability ([1]; first compound 5 µM)	relative viability ([1]; first compound 15.81 µM)	relative viability ([1]; first compound 50 µM)	relative viability ([2]; first compound 0.5 µM)	relative viability ([2]; first compound 5 µM)	relative viability ([2]; first compound 15.81 µM)	relative viability ([2]; first compound 50 µM)	relative viability ([3]; first compound 0.5 µM)	relative viability ([3]; first compound 5 µM)	relative viability ([3]; first compound 15.81 µM)	relative viability ([3]; first compound 50 µM)	relative viability ([4]; first compound 0.5 µM)	relative viability ([4]; first compound 5 µM)	relative viability ([4]; first compound 15.81 µM)	relative viability ([4]; first compound 50 µM)	relative viability ([1]; first compound 1.581 µM)	relative viability ([2]; first compound 1.581 µM)	relative viability ([3]; first compound 1.581 µM)	relative viability ([4]; first compound 1.581 µM)
NCI-H2023	0.712	0.359	0.162	0.0791	0.75	0.562	0.388	0.135	0.578	0.582	0.41	0.264	0.91	0.722	0.138	0.0836				
NCI-H2085	0.837	0.704	0.378	0.428	1.03	0.887	0.771	0.639	1.19	1.03	0.831	0.626	0.922	0.823	0.598	0.295	0.777	0.911	1	0.815
NCI-H2087	0.693	0.656	0.438	0.203	0.983	1	0.66	0.307	1.17	0.985	0.839	0.221	0.694	0.724	0.995	0.343	0.523	0.983	1.09	0.958
NCI-H2126	0.721	0.778	0.572	0.511	0.734	0.717	0.652	0.673	0.779	0.749	0.67	0.739	0.756	0.819	0.539	0.646	0.697	0.693	0.716	0.773
NCI-H2228	0.674	0.594	0.607	0.13	0.778	0.734	0.721	0.166	0.664	0.82	0.61	0.177	0.749	0.588	0.539	0.123	0.54	0.783	0.672	0.609
NCI-H2347	0.404	0.475	0.389	0.405	1.08	0.96	0.944	0.87	1.2	1.04	0.965	0.978	0.724	0.689	0.589	0.36		0.805	0.953	0.59
NCI-H2405	0.679	0.677	0.698	0.693	1.14	1.02	1.02	0.536	1.16	0.95	0.918	0.526	1.07	1.02	1.01	0.35	0.557	0.889	0.664	
NCI-H3122	1.27	1.04	0.862	0.235	1.04	0.943	1.01	0.567	0.866	0.792	0.775	0.646	1.04	1.03	1.11	0.773		0.956	0.718	1.11
PC-3 [JPC-3]	0.778	0.746		0.498	0.96	0.96		0.889	1.09	0.979		0.884	0.753	0.867	0.418	0.307	0.73	0.862	0.97	
PC-14	1.21	1.15	0.14	0.0614	1.01	0.983		0.94	1.05	0.906		0.941	0.865	0.824	0.0883	0.0654		0.741		
RERF-LC-KJ	0.665	0.529	0.413	0.296	0.966	0.868	0.815	0.843	0.924	0.728	0.677	0.659	0.796	0.739	0.58	0.428		0.706		0.434
SK-LU-1	0.381	0.356	0.34	0.174	1.31	1.46	1.14	0.283	1.23	1.26	0.806	0.232	0.717	0.817	0.757	0.289	0.36	1.35	1.01	0.786
SK-MES-1	0.704	0.611	0.548	0.199	1.12	1.1	0.887	0.987	0.968	0.911	0.773	0.827	1.09	1.1	0.728	0.228	0.523	1.07	0.735	0.938
SW 1573	0.884	0.703	0.284	0.11	1	0.917	0.741	0.961	1.1	0.879	0.785	0.663	1.09	0.48	0.455	0.164	0.431	0.669	0.644	0.787
UMC-11	0.465	0.507	0.484	0.284	1.06	1.02	0.987	0.399	1.06	1.12	0.898	0.306	0.448	0.449	0.446	0.296	0.526	1.18	1.03	0.408
